Test results reported in article PMC7822874, “Chemoprotective antimalarials identified through quantitative high-throughput screening of Plasmodium blood and liver stage parasites” (Scientific Reports, 2021).
Like-named read-outs stand apart in the source and are kept apart here.

How the values were obtained:
HepG2 = details: human, hepg2 cells, 48 h
in vitro = details: human, hepg2 cells
[1] = tested on: P. falciparum Dd2 Cytb G131S; assay: SYBR Green ABS proliferation assay, NCGC00374598 selected clone C11; type: cell-based, Plasmodium falciparum; details: Plasmodium falciparum
Procedure: (§1) As resistance selection studies implicated the parasite cytochrome bc1 complex in mediating reduced parasite susceptibility to both NCGC00473217 and NCGC00374598, we leveraged these drug-selected parasites to test for altered drug response to a panel of antimalarial compounds.
(§2) The P. falciparum parasite Dd2 line was cultured in vitro using standard conditions. […] Tissue culture flasks and assay plates were incubated at 37 °C under a gas mixture of 5% CO2, 5% O2 and 90% N2. […] Significant differences were assessed using two-sided Student’s t-tests. All HTS assays were stopped and read at 72 h. Percent response values represent relative growth as judged by SYBR Green-I fluorescence intensity values normalized to controls.
(§3) Fresh uninfected RBCs (0.5% hematocrit) were added on day 7 and media was changed every other day. […] Resistant parasites were maintained under drug media at a volume of 50 mL until a high parasitemia (> 5%) was achieved. Aliquots of the bulk resistant cultures were frozen in cryovials before cloning by limiting dilution in 96-well plates (seeded at 0.25 or 0.5 parasites/well)[70]. After 3 weeks of cloning, we screened for positive wells by flow cytometry with SYBR Green-stained cells. […] Parasites were harvested by saponin lysis at the trophozoite stage and genomic DNA was extracted using the QIAamp DNA Blood Midi Kit (Qiagen, Germantown, MD)[71].

[2] = tested on: P. falciparum Dd2 (clone B2) asexual blood stage parasites; assay: P. falciparum Dd2 asexual blood stage SYBR Green-I 72 h proliferation assay (qHTS); type: cell-based, Plasmodium falciparum; details: Plasmodium falciparum, DD2, Dd2 parental; Hill fit, averaged from three independent replicates; top concentration 29 µM; read-out: Average AC50 (Log[M]), Dd2 (converted)
[3] = tested on: P. falciparum Dd2 Cytb V259L; assay: SYBR Green ABS proliferation assay, NCGC00473217 selected clone F06; type: cell-based, Plasmodium falciparum; details: Plasmodium falciparum
Procedure: as §1, §2, §3

[4] = DD2, […], averaged from three independent replicates, top concentration 29 µM, read-out: Average AC50 (Log[M]), NCGC00374598 clone C11 (Cytb G131S) (converted)
[5] = DD2, […], averaged from three independent replicates, top concentration 29 µM, read-out: Average AC50 (Log[M]), NCGC00473217 clone F06 (Cytb V259L) (converted)

| SMILES | Log AC50 (M) (HepG2) | CC50 at 48 h (in vitro) [µM] | further results |
| --- | --- | --- | --- |
| N=c1ccn(Cc2cccc(Cl)c2)cc1 [MLS000080111-01] | -4.4643 | 34.3 | – |
| O=c1c2ccccc2nc2n1CCN2Cc1ccc(Cl)cc1 [MLS000107729-01] | -4.3643 | 43.2 | – |
| O=C(Nc1ccc(Cl)cc1)N1CCC(c2nc(-c3ccccc3Cl)no2)CC1 [MLS000529331-01] | -4.4643 | 34.3 | – |
| Brc1ccc2[nH]c3c(N4CCc5ccccc5C4)ncnc3c2c1 [MLS000556376-01] | -4.3643 | 43.2 | – |
| O=C(N/N=C/c1ccccn1)c1ccccc1 [MLS000562399-01] | -4.3643 | 43.2 | – |
| Cc1ccc(-c2nn(-c3ccccc3)cc2CSC(=N)N)cc1 [MLS000572993-01] | -4.3643 | 43.2 | – |
| Cc1cccc(Cn2nnc3c2C(=O)c2ccccc2C3=O)c1 [MLS000594471-01] | -4.3643 | 43.2 | – |
| Nc1nc(N)c2c(ccc3[nH]ccc32)n1 [MLS000758537-01] | -4.9143 | 12.2 | – |
| COc1ccc(CNc2ncnc3c2[nH]c2ccccc23)cc1 [MLS000768346-01] | -4.3643 | 43.2 | – |
| OC(CNCCc1ccccc1)COc1ccc(OCC(O)CNCCc2ccccc2)cc1 (stereo not drawn) [MLS000769724-01] | -4.3643 | 43.2 | – |
| O=C(Nc1ccc(Oc2cccc(C(F)(F)F)c2)nc1)c1cccs1 [MLS000860613-01] | -4.7643 | 17.2 | – |
| O=C(Nc1ccc(Oc2cccnc2)cc1)C1CCN(Cc2cc(Cl)ccc2O)CC1 [MLS001072411-01] | -4.5143 | 30.6 | – |
| COc1cnc(-c2ccccn2)nc1Oc1ccc(C(C)(C)C)cc1 [MLS001165485-01] | -4.4143 | 38.5 | – |
| CCc1nnc(NC(=O)c2cc(Cl)ccn2)s1 [MLS001175292-01] | -4.3643 | 43.2 | – |
| CC(=O)c1cn(CCOc2ccc(F)cc2)c2ccccc12 [MLS001205469-01] | -4.3643 | 43.2 | – |
| Cc1cc(C)n(-c2nc3ccccc3c(=O)n2OCC#N)n1 [MLS001215162-01] | -4.9143 | 12.2 | – |
| Cc1ccc(NC(=O)CSc2n[nH]c(-c3ccccn3)n2)cc1 [MLS001223214-01] | -4.6143 | 24.3 | – |
| SC(=Nc1ccncc1)NCc1ccccc1 [MLS001230114-01] | -4.5643 | 27.3 | – |
| N[S+](=O)([O-])c1cc2c(cc1Cl)N=CN[S+]2(=O)[O-] [NCGC00015242-14] | – | – | AC50 [1, 4]: 7.1e-07 M; AC50 [2]: 2e-06 M |
| CCCCCCc1cc2cc(-c3nnc(-c4ccc(C)cc4)o3)c(=O)oc2cc1O [NCGC00098410-01] | -4.4643 | 34.3 | – |
| CCOC(=O)c1ccc(-c2ccc(/C=C(\C#N)c3nc4cc(C)ccc4[nH]3)o2)cc1 [NCGC00098928-01] | -4.3643 | 43.2 | – |
| O=C(Nc1cccc(C(F)(F)F)c1)C1CCN([S+](=O)([O-])c2cccc3nsnc23)CC1 [NCGC00108239-01] | -4.3643 | 43.2 | – |
| CCOC(=O)c1ccc(N2C(=O)c3[nH]nc(-c4ccc(OC)cc4)c3C2c2cccc(O)c2)cc1 (stereo not drawn) [NCGC00108527-01] | -4.3643 | 43.2 | – |
| CCN(CC)CCCNC(=O)c1ccc2c(c1)sc1nc(-c3ccc(C)cc3)cn12 [NCGC00121667-01] | -4.3643 | 43.2 | – |
| Cc1nc(-c2ccc(Cl)cc2)sc1CCNC(=O)c1ccco1 [NCGC00131874-01] | -5.1643 | 6.85 | – |
| Cc1ccccc1Cn1c(CN2CCC(C(=O)NCCN(C)C)CC2)cc2ccccc21 [NCGC00137638-01] | -4.3643 | 43.2 | – |

| SMILES | Log AC50 (M) (HepG2) | CC50 at 48 h (in vitro) [µM] | further results |
| --- | --- | --- | --- |
| CN1C(CCl)Nc2cc(Cl)c([S+](N)(=O)[O-])cc2[S+]1(=O)[O-] (stereo not drawn) [NCGC00167446-03] | – | – | AC50 [3, 5]: 3.17e-08 M; AC50 [1, 4]: 3.17e-08 M; AC50 [2]: 2.82e-08 M |
| CC(=O)N1CCN(c2cc(-c3noc([C@@H]4CCCN4Cc4ccc(C(F)(F)F)cc4)n3)ccn2)CC1 [NCGC00394931-01] | -4.5143 | 30.6 | – |
| Fc1ccc(CN2CC[C@H](c3nc4ccc(C(F)(F)F)cc4[nH]3)C2)cc1F [NCGC00396703-01] | -4.3028 | 49.8 | – |
| O=C(C[C@@H]1CCNC[C@@H]1Cc1cc(CC2CCCCC2)on1)NCc1ccccc1 [NCGC00400728-01] | -4.3028 | 49.8 | – |
| COc1ccc2cc1Nc1ccc(cc1)C[C@H](NC(=O)CCc1ccccn1)C(=O)N(C)[C@@H](C(=O)NCc1ccccc1)C2 [NCGC00410291-01] | -4.6143 | 24.3 | – |
| Cc1cc(=O)n(CC(=O)Nc2cccc(C(F)(F)F)c2)c(N2CCC(C)CC2)n1 [NCGC00432189-01] | -4.5143 | 30.6 | – |
| COc1cc(NC(=O)Cn2c(N(C)Cc3ccccc3)nc(C)cc2=O)cc(OC)c1 [NCGC00432301-01] | -4.3643 | 43.2 | – |
| COc1cccc(-c2noc(CCCc3nc(-c4cccnn4)no3)n2)c1 [NCGC00435845-01] | -4.5143 | 30.6 | – |
| CCN1C(=O)C2(CCN([S+](=O)([O-])c3cc(F)ccc3C)CC2)c2ccccc21 [NCGC00435872-01] | -4.4143 | 38.5 | – |
| CC(C(=O)N1CCCN(c2cc(-c3ccc(Cl)cc3)n[nH]2)CC1)c1ccccc1 (stereo not drawn) [NCGC00436178-01] | -4.3643 | 43.2 | – |
| O=C(N1CCCN(c2cc(-c3ccc(Cl)cc3)n[nH]2)CC1)C1(c2ccccc2)CC1 [NCGC00436184-01] | -4.3643 | 43.2 | – |
| O=C(c1ccco1)N1CCCN(c2cc(-c3ccc(Br)cc3)n[nH]2)CC1 [NCGC00436196-01] | -4.3643 | 43.2 | – |
| CCC(C(=O)N1CCN(c2cc(-c3cccs3)n[nH]2)CC1)c1ccccc1 (stereo not drawn) [NCGC00436744-01] | -4.3643 | 43.2 | – |
| O=C(NC1CCN(c2cc(-c3cccs3)n[nH]2)CC1)c1cccc(OC(F)(F)F)c1 [NCGC00437198-01] | -4.3643 | 43.2 | – |
| OC[C@H]1CCN(Cc2ccc(-c3cccc(Cl)c3Cl)o2)C[C@@H]1O [NCGC00438915-01] | -4.5143 | 30.6 | – |
| O=C(CC1C(=O)NCCN1Cc1cccc(Oc2ccccc2)c1)NCc1ccco1 (stereo not drawn) [NCGC00439848-01] | -8.3643 | 0.00432 | – |
| CC(C)c1nc(-c2ccc(OC3CCN(C(=O)c4cc(F)ccc4F)C3)cc2)no1 (stereo not drawn) [NCGC00441011-01] | -4.4643 | 34.3 | – |
| CCCN1C(CC(C)C)=N[S+](=O)([O-])c2cc(NC(=O)C(=O)OCC)ccc21 [NCGC00521135-01] | – | – | AC50 [1, 4]: 7.96e-06 M; AC50 [2]: 1.59e-05 M |
| CCCN1C(CC(C)C)=N[S+](=O)([O-])c2cc(NC(=O)C3CCOCC3)ccc21 [NCGC00521138-01] | – | – | AC50 [3, 5]: 1.22e-05 M; AC50 [1, 4]: 3.99e-06 M |
| CCCN1C(CC(C)C)=N[S+](=O)([O-])c2cc(N[S+](=O)([O-])c3ccccc3C)ccc21 [NCGC00521140-01] | – | – | AC50 [3, 5]: 1e-05 M |
| CCCN1C(CC(C)C)=N[S+](=O)([O-])c2cc(N[S+](=O)([O-])c3ccccc3)ccc21 [NCGC00521146-01] | – | – | AC50 [1, 4]: 7.1e-06 M; AC50 [2]: 7.96e-06 M |
| CCCN1C(CC(C)C)=N[S+](=O)([O-])c2cc(N[S+](=O)([O-])c3cc4ccccc4s3)ccc21 [NCGC00521156-01] | – | – | AC50 [1, 4]: 1e-06 M; AC50 [2]: 1.26e-06 M |
| CCCN1C(CC(C)C)=N[S+](=O)([O-])c2cc(N[S+](=O)([O-])c3ccc(Cl)s3)ccc21 [NCGC00521874-01] | – | – | AC50 [3, 5]: 7.1e-07 M; AC50 [1, 4]: 8.93e-07 M; AC50 [2]: 1.42e-06 M |
| CCCN1C(C)=N[S+](=O)([O-])c2cc(NC(=O)c3cccs3)ccc21 [NCGC00522606-01] | – | – | AC50 [1, 4]: 2e-06 M; AC50 [2]: 8.93e-06 M |
| CCCN1C(C)=N[S+](=O)([O-])c2cc(NC(=O)c3ccc(F)cc3)ccc21 [NCGC00522607-01] | – | – | AC50 [1, 4]: 1.26e-06 M; AC50 [2]: 1.12e-06 M |
| CCCN1C(CC(C)C)=N[S+](=O)([O-])c2cc(NC(=O)c3cccc(C#N)c3)ccc21 [NCGC00531772-01] | – | – | AC50 ([3]; DD2, cytochrome b mutant line, third value triple, c9, […], read-out: log AC50, mean (converted)): 8.93e-07 M; AC50 ([1]; DD2, cytochrome b mutant line, second value triple, c6, […], read-out: log AC50, mean (converted)): 2.67e-07 M |
